Like-named read-outs stand apart in the source and are kept apart here.

Usually half-life stands for the time in which the quantity being followed falls by half. A lower half-life goes with rapid decline.

Series [1] is described as follows: Clinical pharmacokinetics: absorption, distribution, metabolism, elimination (incl. radiolabel study). The class given is in vivo, human. The note with it: for half-life: plasma, oral. The protocol:
Based on urinary excretion and biotransformation products eliminated in feces, the oral absorption of drug-related material following administration of a single 75 mg solution dose was estimated to be at least 52%.
Metabolites due to glucuronidation and oxidation were also detected.

A further series has as its system mice. The series is described as follows: Platelet production in animals. The class given is in vivo, mouse.
The next series deals with rabbits. Briefly: Toxicology in rabbits. The class given is in vivo, rabbit. The conditions noted are these: 1.4 times human clinical exposure (AUC).
The test system of another series is rats. The conditions noted are these: rat, in vivo.

For `CC1=NN(c2ccc(C)c(C)c2)C(=O)/C1=N\Nc1cccc(-c2cccc(C(=O)O)c2)c1O` [eltrombopag, 3′-[(2Z)-[1-(3,4-dimethylphenyl)-1,5-dihydro-3-methyl-5-oxo-4H-pyrazol-4-ylidene]hydrazino]-2′-hydroxy-[1,1′-biphenyl]-3-carboxylic acid], in series [1] (% of dose), the “dose found in the urine” value is on record as 31%, the excretion via feces is recorded as 59% and the “unchanged eltrombopag in feces” value is “approximately 20%”. Besides, the extent of metabolism result in series [1] (cleavage, oxidation, conjugation) was “extensively metabolized”. The “share of plasma radiocarbon AUC0-∞” value in series [1] (human radiolabel study) was “approximately 64%”. For the same molecule, in series [1] (human, in vivo), the renal excretion entry is reported as “not significantly renally excreted” and the “unchanged eltrombopag in urine” value is given as “not detectable”. Further, the “time of peak concentration after oral administration” value in series [1] (human, in vivo, po) was in the range of 2 to 6 h. The half-life in series [1] (human, ITP patients) lay within 26 to 35 h. In series [1] (human, healthy subjects), this molecule displayed a half-life of 21 to 32 h. Further, the “concentration in blood cells as % of plasma concentrations” value in series [1] (radiolabel study) is recorded as 50-79%. For the same molecule, the “oral absorption of drug-related material” value in series [1] (single 75 mg solution dose, from urinary excretion and fecal biotransformation products) is on record as “at least 52%”. Also, the platelet production entry with mice is “does not stimulate platelet production”. Further, the liver finding result in the series on rabbits is listed as “hepatocellular hypertrophy”. Besides, in the series with rats, the liver finding result is given as “hepatocellular hypertrophy” and the “liver finding (vacuolation)” value is given as “hepatocellular vacuolation”. Besides, in the series on rats (28 weeks), the “duration of dosing after which cataracts were observed” value was 28 weeks. In the series on rats (39 weeks), the “duration of dosing after which cataracts were observed” value stood at 39 weeks.

For the origin of these results see patent US20140142155A1, “METHOD OF TREATING THROMBOCYTOPENIA” (GlaxoSmithKline LLC, priority 2008, published 2014).
